Data on 7 molecules can be found in patent US20220135940A1, “METHOD FOR PRODUCING KIDNEY STRUCTURE HAVING DENDRITICALLY BRANCHED COLLECTING DUCT FROM PLURIPOTENT STEM CELLS” (NATIONAL UNIVERSITY CORPORATION KUMAMOTO UNIVERSITY, priority 2018, published 2022).

For experiment [1], the system named is mouse ES cells. The experiment in a line: Induction of CXCR4+/KIT+ WD progenitors from mouse ES cells, FACS at day 6.25. It is filed as cell-based. Here is the method:
(§1) ES cells were differentiated in a serum-free medium as follows. The ES cells were dissociated with Accutase™ (ESGRO) and cultured in a serum-free mouse ES cell differentiation medium. The harvested cells were aggregated in a 96-well U-bottom low cell binding plate at 1,000 cells per aggregate to form embryonic bodies (EBs). After 48 hours (day 2), the EBs were dissociated with Accutase and re-aggregated in a serum-free differentiation medium supplemented with 10 ng/mL human activin A (R & D) (Procedure 1). After 24 hours (day 3), the medium was replaced with a medium containing 0.3 ng/mL human Bmp4 (R & D) and 10 μM CHIR 99021 (Procedure 2). After 36 hours (day 4.5), the medium was replaced with procedure 3 medium containing 0.1 μM retinoic acid, 100 ng/mL human Fgf9 and 10 μM SB431542 (Wako). On day 5.5 (24 hours later), the medium was replaced with a medium containing 0.1 μM retinoic acid, 100 ng/mL human Fgf9 and 5 μM CHIR99021 (“Procedure 4 medium”). The differentiation factors of the Hoxb7-GFP ES cell line are shown in the table below together with the differentiation factors of the Osr1-GFP ES cell line.
On day 6.25, the induced spheroids were harvested and dissociated by incubating in 0.25% trypsin/EDTA at 37° C. for 6 minutes. After blocking in normal mouse serum, cell surface marker (CXCR4/KIT) staining was carried out in a buffer containing 1% BSA, 1×HBSS and 0.035% NaHCO3. The FACS-sorted 3,000 Hoxb7-GFP+/CXCR4+/KIT+ cells were aggregated in a V-bottom 96-well low cell binding plate to form spheroids. Subsequently, these were cultured using the above E8.75 embryonic tissue culture conditions.
(§2) Cell aggregates induced from embryonic tissue or mouse ES cells/human iPS cells were dissociated and blocked with normal mouse serum and then cell surface marker staining was carried out in a buffer containing 1% BSA, 1×HBSS and 0.035% NaHCO3. Data analysis was performed with FlowJo software (Treestar).

In experiment [2] the test system is sorted Hoxb7-GFP positive E8.75 WD progenitors. Kind of experiment: Maturation culture of sorted E8.75 WD progenitors, marker genes by qRT-PCR. The format is cell-based, mouse. Particulars: Wnt agonist 3 μM and Fgf9 100 ng/mL. The protocol:
For embryonic tissue cultures at E8.75, the region caudal to the heart primordia of 12-15 somite-stage embryos were harvested and Hoxb7-GFP+/Flk1− cells were sorted by FACS. The sorted cells were aggregated in a V-bottom 96-well low cell binding plate at about 1,200 cells per aggregate. It was cultured for the first 24 hours using a medium containing 10 μM Y27632, 0.1 μM retinoic acid, 1 μM CHIR99021, 5 ng/mL human Fgf9 and 10% growth factor reduced Matrigel (“Procedure 5 medium”), then, the spheroids were transferred to “Procedure 6 medium” and “Procedure 7 medium,” and cultured for 24 hours each for differentiation.
(§3) Harvested spheroids or cells were homogenized, and total RNA was isolated using RNeasy Plus Micro Kit (Qiagen), and then a reverse-transcribed with random primers and Superscript III (Invitrogen). Quantitative PCR was carried out using Real-Time PCR system (Takara Bio) and Thunderbird SYBR qPCR Mix (Toyobo). With normalized by β-actin gene, relative mRNA expression levels were analyzed.
As the second procedure, the factors that mature the E8.75WD into the E9.5WD were found as follows. We investigated the factors that trigger maturation of the WD progenitors in the early stage, from embryonic E8.75 to E9.5 stage. At embryonic E8.75 to E9.5 stage, the Hoxb7-GFP positive WD progenitors are first clearly detectable in the anterior body trunk of the embryo (8-10 somite level). […]
Background: In qPCR the cycle at which signal appears reflects the starting amount.

Experiment [3] has as its system mouse ES cells. Kind of experiment: AIM induction from mouse ES cells (procedure 3), AIM marker expression. The format is cell-based. The note with it: Fgf9 at high concentrations. Here is the method: as §1, §3
Next, signaling for the AIM differentiation procedure was hypothesized, which is partially different from that for PIM, based on the gene expression profile minimally conserved, between anterior intermediate mesoderm (AIM) (Osr1+, Pax2+, Pax8+, Emx2+, Lhx1+, Gata3+) and posterior intermediate mesoderm (PIM) (Osr1+, Wtl+, Hoxll+) (Procedure 3 in FIG. 2).

Experiment [4] concerns human iPS cell-derived CXCR4+/KIT+ WD progenitors. Kind of experiment: Maturation culture of sorted human iPS cell-derived CXCR4+/KIT+ WD progenitors, mature WD marker genes. The format is cell-based. Particulars: continuous administration in addition to mouse WD maturation cocktails, 10% Matrigel. The protocol: On day 6.25, the induced spheroids were harvested and dissociated by incubating in 0.25% trypsin/EDTA for 6 minutes at 37° C. After blocking in normal mouse serum, cell surface marker (CXCR4/KIT) staining was carried out in a buffer containing 1% BSA, 1×HBSS and 0.035% NaHCO3. The FACS-sorted 5,000 of CXCR4+/KIT+ cells were seeded in a V-bottom 96-well low cell binding plate and precipitated by the centrifuge (210 G for 4 minutes). The supernatant was replaced with a medium containing 10 μM Y27632, 0.1 μM retinoic acid, 1 μM CHIR, 5 ng/mL human Fgf9, 100 ng/mL human Fgf1, 10 nM LDN193189 and 10% growth factor reduced Matrigel (“Procedure 5 medium”). On day 8.5, the spheroids were transferred to a medium containing 10 μM Y27632, 0.1 μM retinoic acid, 3 μM CHIR, 5 ng/mL human Fgf9, 1 ng/mL human GDNF, 100 ng/mL human Fgf1, 10 nM LDN193189 and 10% growth factor reduced Matrigel (“Procedure 6 medium”). […]
(§4) Harvested spheroids or cells were homogenized, and total RNA was isolated using RNeasy Plus Micro Kit (Qiagen), and then a reverse-transcribed with random primers and Superscript III (Invitrogen). Quantitative PCR was carried out using Real-Time PCR system (Takara Bio) and Thunderbird SYBR qPCR Mix (Toyobo). With normalized by β-actin gene, relative mRNA expression levels were analyzed. […]

The test system of experiment [5] is human iPS cells. Kind of experiment: Induction of CXCR4+/KIT+ WD progenitors from human iPS cells, FACS at day 6.25. The format is cell-based. Here is the method:
(§5) Cells were reaggregated at 10,000 cells per aggregate in a V-bottom 96-well low cell binding plate using a medium containing 10 μM Y27632 and 10 ng/mL human activin A and 1 ng/mL human Bmp4 (“Procedure 1 medium”), to form embryonic bodies (EBs). After 24 hours (day 1), the aggregates were transferred to a U-bottom 96-well low cell binding plate containing a medium containing 10 μM CHIR and 1 ng/mL human Bmp4 (“Procedure 2 medium”). After 36 hours (day 2.5), the medium was replaced with a medium containing 0.1 μM retinoic acid, 100 ng/mL human Fgf9, 100 nM LDN193189 and 100 μM SB431542 (“Procedure 3 medium”). On day 4.5, the medium was replaced with a medium containing 0.1 μM retinoic acid, 5 μM CHIR, 100 ng/mL human Fgf9 and 30 nM LDN193189 (“Procedure 4 medium”).
On day 6.25, the induced spheroids were harvested and dissociated by incubating in 0.25% trypsin/EDTA for 6 minutes at 37° C. After blocking in normal mouse serum, cell surface marker (CXCR4/KIT) staining was carried out in a buffer containing 1% BSA, 1×HBSS and 0.035% NaHCO3. The FACS-sorted 5,000 of CXCR4+/KIT+ cells were seeded in a V-bottom 96-well low cell binding plate and precipitated by the centrifuge (210 G for 4 minutes). The supernatant was replaced with a medium containing 10 μM Y27632, 0.1 μM retinoic acid, 1 μM CHIR, 5 ng/mL human Fgf9, 100 ng/mL human Fgf1, 10 nM LDN193189 and 10% growth factor reduced Matrigel (“Procedure 5 medium”). On day 8.5, the spheroids were transferred to a medium containing 10 μM Y27632, 0.1 μM retinoic acid, 3 μM CHIR, 5 ng/mL human Fgf9, 1 ng/mL human GDNF, 100 ng/mL human Fgf1, 10 nM LDN193189 and 10% growth factor reduced Matrigel (“Procedure 6 medium”). On day 10.5, the spheroids were transferred to a medium containing 10 μM Y27632, 0.1 μM retinoic acid, 3 μM CHIR, 2 ng/mL human GDNF, 100 ng/mL human Fgf1, 10 nM LDN193189 and 10% growth factor reduce Matrigel (“Procedure 7 medium”).
as §2
Next, the optimal time window for inducing anterior or posterior intermediate mesoderm from the nascent mesoderm was examined. Since the nascent mesoderm population is maintained by the high concentrations of Wnt agonists, the incubation period with Wnt agonists was varied and the subsequent differentiation was applied with conditions specific to the UB or metanephric nephron progenitor cell lineage. The induction efficiency of CXCR4+/KIT+ WD progenitor or ITGA8+/PDGFRA− nephron progenitor cell fraction was examined at day 6.25 or day 12, respectively. […]

The subject of experiment [6] is human iPS cells. Kind of experiment: AIM induction from human iPS cells (procedure 3), AIM marker genes by quantitative analysis at day 4.5. The format is cell-based. Particulars: administered at procedure 3, day 4.5. Here is the method:
as §5, §3
The induction of WD from human iPS cells was performed as follows. […] This was confirmed by quantitative analysis at day 4.5 and day 6.25, respectively (FIG. 22).

Experiment [7] relates to WD sorted from dissociated E9.5 mouse embryos. The experiment in a line: Maturation culture of sorted E9.5 embryonic WD with growth factor combinations, marker genes by qRT-PCR. It is filed as cell-based. Particulars: E9.5 WD aggregates, Gdnf added to RA, Wnt agonist and Fgf9. Here is the method:
The posterior regions were harvested from the forelimbs of 22-26 somatic-stage embryos for embryonic tissue culture at […]. The harvested tissues were dissociated into single cells by incubating in DMEM/10% FBS containing 1 mg/mL Type XI collagenase for 6 minutes at 37° C., followed by treatment with DNase I and 0.25% trypsin at 37° C. for 6 minutes. After blocking in normal mouse serum, cell surface marker (Flk1) staining was carried out. Hoxb7-GFP+/Flk1− cells sorted by FACS were resuspended in a mouse ES cell differentiation media, and seeded in a V-bottom 96-well low cell binding plate (Sumitomo Bakelite, Co., Ltd., Cat #MS-9096V) so that there were about 1,600 cells per well. After the centrifuge (210 G, 4 min), the supernatant media was replaced with a medium containing 10 μM Y27632 (Wako), 0.1 μM retinoic acid, 3 μM CHIR99021, 5 ng/mL human Fgf9 (R & D), 1 ng/mL human GDNF (R & D) and 10% growth factor reduced Matrigel (BD) (“Procedure 6 medium”). […]
as §4

As for `Cc1c[nH]c(-c2cnc(NCCNc3ccc(C#N)cn3)nc2-c2ccc(Cl)cc2Cl)n1` [CHIR99021, reference compound], the “induction of the CXCR4+/KIT+ population” value in the experiment on mouse ES cells [1] (procedure 4, removal of the factor from RA, Wnt agonist and Fgf9) was “dramatically reduced the induction of the CXCR4+/KIT+ population”. Further, the “expression of maturation marker genes (Hnf1b, Wnt9b, Calb1, E-cadherin)” value in experiment [2] is “worked inhibitory”.
For the molecule `CC1=C(/C=C/C(C)=C/C=C/C(C)=C/C(=O)O)C(C)(C)CCC1` [retinoic acid, all trans-retinoic acid, reference compound], the “induction of AIM markers” value with mouse ES cells [3] is “common inducer for both AIM and PIM induction”.
For the molecule “Fgf1: fibroblast cell growth factor, human Fgf1”, the “expression of the mature WD marker genes” value in experiment [4] was “further enhanced the expression of the mature WD marker genes”.
`NC(=O)c1ccc(-c2nc(-c3ccc4c(c3)OCO4)c(-c3ccccn3)[nH]2)cc1` [SB431542, reference compound]: the “induction of AIM markers” value in the experiment with mouse ES cells [3] was “enhanced the AIM marker induction”.
On to `c1ccc2c(-c3cnn4cc(-c5ccc(N6CCNCC6)cc5)cnc34)ccnc2c1` [LDN, LDN193189, reference compound], for which the “induction of CXCR4+/KIT+ WD progenitors” value with human iPS cells [5] (administered at procedure 3, day 6.25) is “greatly enhanced”. In addition, the “expression of the mature WD marker genes” value in experiment [4] is recorded as “further enhanced the expression of the mature WD marker genes”. In the experiment on human iPS cells [6], the “AIM marker genes expression” value is “greatly enhanced”.

B1: Bmp4: BMP signal pathway active substance, human Bmp4 (R & D) (protein, UniProt P12644 293-408, looked up)
Bone morphogenetic protein 4: SPKHHSQRARKKNKNCRRHSLYVDFSDVGWNDWIVAPPGYQAFYCHGDCPFPLADHLNSTNHAIVQTLVNSVNSSIPKACCVPTELSAISMLYLDEYDKVVLKNYQEMVVEGCGCR
On to B1, for which the “UB induction versus MM induction, concentration dependence” value in the experiment with mouse ES cells [1] (Bmp4 in procedure 2, activin A in procedure 1) is recorded as “maximized at higher Bmp4 concentrations compared to MM”. Moreover, the “induction of AIM markers” value in the experiment on mouse ES cells [3] is given as “inhibitory to the induction of AIM markers”. Also, the “concentration at which WD progenitor induction peaked” value in the experiment with human iPS cells [5] (epiblast patterning stage (day 0 to day 1), combination of activin A and Bmp4) was determined as 1 ng/mL. For the same molecule, the “concentration at which UB progenitor cells were most efficiently induced” value in the experiment with human iPS cells [5] (mesoderm induction/patterning with CHIR, days 1 to 2.5) is given as 1 ng/mL.

B2: Gdnf: glial cell line-derived neurotrophic factor, recombinant human GDNF protein (protein, UniProt P39905 78-211, looked up)
Glial cell line-derived …: SPDKQMAVLPRRERNRQAAAANPENSRGKGRRGQRGKNRGCVLTAIHLNVTDLGLGYETKEELIFRYCSGSCDAAETTYDKILKNLSRNRRLVSDKVGQACCRPIAFDDDLSFLDDNLVYHILRKHSAKRCGCI
With B2, the “Wnt11 expression and bud-like structure formation” value in experiment [7] is “successfully induced the Wnt11 expression and bud-like structure formation”.
